IC50 data for four compounds are collected here from ChEMBL document CHEMBL1144292, “Estrogen receptor ligands. Part 11: Synthesis and activity of isochromans and isothiochromans” (Bioorg Med Chem Lett, 2005).

In one assay the target is Estrogen receptor beta (Homo sapiens, UniProt Q92731).
Assay [1] has as its target T1, Estrogen receptor (Homo sapiens, UniProt P03372).
T1 sequence (P03372 whole entry): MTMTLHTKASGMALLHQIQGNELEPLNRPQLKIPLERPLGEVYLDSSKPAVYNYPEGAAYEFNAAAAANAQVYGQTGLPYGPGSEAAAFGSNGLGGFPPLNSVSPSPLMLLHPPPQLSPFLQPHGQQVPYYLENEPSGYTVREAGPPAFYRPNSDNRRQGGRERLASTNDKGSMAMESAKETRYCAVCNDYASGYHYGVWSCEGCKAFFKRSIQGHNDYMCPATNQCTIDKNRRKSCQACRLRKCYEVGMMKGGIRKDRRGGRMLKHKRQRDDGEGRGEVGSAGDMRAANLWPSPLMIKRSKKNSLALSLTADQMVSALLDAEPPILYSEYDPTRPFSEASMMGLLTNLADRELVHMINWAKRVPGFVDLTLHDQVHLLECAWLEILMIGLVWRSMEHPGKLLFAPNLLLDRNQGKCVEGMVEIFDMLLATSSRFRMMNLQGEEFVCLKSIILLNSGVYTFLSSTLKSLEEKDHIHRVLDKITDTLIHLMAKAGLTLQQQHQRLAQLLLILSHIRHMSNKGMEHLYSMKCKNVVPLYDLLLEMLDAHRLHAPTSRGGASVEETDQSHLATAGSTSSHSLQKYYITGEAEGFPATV
Description: Binding affinity for human estrogen receptor alpha

For assay [2], the target named is Estrogen receptor (Homo sapiens, UniProt Q92731+P03372). The settings on record: mcf-7.
Description: Inhibition of MCF-7 cell proliferation

Chain of Estrogen receptor beta (Q92731 whole entry): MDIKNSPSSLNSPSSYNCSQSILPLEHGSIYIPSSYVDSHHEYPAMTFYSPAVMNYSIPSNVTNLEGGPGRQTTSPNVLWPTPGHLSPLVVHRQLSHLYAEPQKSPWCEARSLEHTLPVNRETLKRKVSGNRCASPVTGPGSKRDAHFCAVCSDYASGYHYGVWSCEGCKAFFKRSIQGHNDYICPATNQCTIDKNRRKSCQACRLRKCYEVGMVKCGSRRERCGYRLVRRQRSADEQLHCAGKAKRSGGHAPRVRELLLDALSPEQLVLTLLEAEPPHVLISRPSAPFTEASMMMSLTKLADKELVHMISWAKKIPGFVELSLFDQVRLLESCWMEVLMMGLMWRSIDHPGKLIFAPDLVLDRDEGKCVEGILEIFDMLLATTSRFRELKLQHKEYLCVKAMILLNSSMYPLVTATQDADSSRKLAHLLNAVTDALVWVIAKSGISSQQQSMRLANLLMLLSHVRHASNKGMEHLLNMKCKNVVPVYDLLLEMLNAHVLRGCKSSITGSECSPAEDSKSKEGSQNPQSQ
Description for Estrogen receptor beta: Binding affinity for human estrogen receptor beta

Turning to `Oc1ccc2c(c1)CO[C@H](c1ccccc1)[C@@H]2c1ccc(OCCN2CCCC2)cc1`, the IC50 against Estrogen receptor beta is 3.6 nM; against Estrogen receptor [1] it was 2.4 nM; against Estrogen receptor [2] it was 0.15 nM.

As to `COc1ccc2c(c1)CS[C@H](c1ccccc1)[C@@H]2c1ccc(OCCN2CCCC2)cc1`, the IC50 was found to be 110 nM on Estrogen receptor beta, 13 nM against Estrogen receptor [1] and 164 nM on Estrogen receptor [2].

Turning to `Oc1ccc2c(c1)CS[C@H](c1ccccc1)[C@@H]2c1ccc(OCCN2CCCC2)cc1`, the IC50 against Estrogen receptor beta was found to be 2.1 nM; against Estrogen receptor [1] it was 0.6 nM; against Estrogen receptor [2], 0.25 nM.

With `COc1ccc2c(c1)CO[C@H](c1ccccc1)[C@@H]2c1ccc(OCCN2CCCC2)cc1`, the figures for the half-inhibitory concentration (IC50) on Estrogen receptor beta, against Estrogen receptor [1] and against Estrogen receptor [2] were 315 nM, 39 nM and 57 nM, respectively.
